As a reminder, the IC50 is the point on the concentration scale where inhibition reaches its midpoint. As a reminder, the EC50 is the concentration that produces a half-maximal response.

Test [1] concerns the target 3',5'-cyclic-AMP phosphodiesterase 4B (Homo sapiens, UniProt Q07343). Nature of the test: Inhibition of human recombinant PDE4B2-mediated cAMP hydrolysis for 30 mins by colorimetric assay.
In test [2] the target is T1, Beta-2 adrenergic receptor (Cavia porcellus, UniProt Q8K4Z4). Nature of the test: Agonist activity at beta2 adrenoceptor in guinea pig assessed as relaxation of histamine-induced tracheal ring contraction. The format is functional, tissue-based, Trachea.
The nature of test [3]: Inhibition of PDE4.
In test [4] the target is T1, Beta-2 adrenergic receptor. Put plainly: Competitive antagonist activity at beta2-adrenoceptor in guinea pig tracheal ring in the presence of N-(5-((1R)-2-(4-(4-(3,4-[…])-1-oxo-4a,5,6,7,8,8a-hexahydrophthalazin-2(1H)-yl)butylamino-1-hydroxyethyl)-2-hydroxyphenyl)formamide. Conditions: read-out: pA2 (converted). The format is functional.
Test [5] has as its target Beta-2 adrenergic receptor (Cavia porcellus) (UniProt Q8K4Z4). Put plainly: Agonist activity at beta2 adrenoceptor in guinea pig assessed as relaxation of histamine-induced tracheal ring contraction in the presence of inverse agonist ICI-118551. The format is functional, tissue-based. Conditions: Trachea.

Each structure is given as a SMILES string. Activity calls are given as the source filed them. No cut-off for these calls is given here.

T1 sequence (Q8K4Z4 whole entry): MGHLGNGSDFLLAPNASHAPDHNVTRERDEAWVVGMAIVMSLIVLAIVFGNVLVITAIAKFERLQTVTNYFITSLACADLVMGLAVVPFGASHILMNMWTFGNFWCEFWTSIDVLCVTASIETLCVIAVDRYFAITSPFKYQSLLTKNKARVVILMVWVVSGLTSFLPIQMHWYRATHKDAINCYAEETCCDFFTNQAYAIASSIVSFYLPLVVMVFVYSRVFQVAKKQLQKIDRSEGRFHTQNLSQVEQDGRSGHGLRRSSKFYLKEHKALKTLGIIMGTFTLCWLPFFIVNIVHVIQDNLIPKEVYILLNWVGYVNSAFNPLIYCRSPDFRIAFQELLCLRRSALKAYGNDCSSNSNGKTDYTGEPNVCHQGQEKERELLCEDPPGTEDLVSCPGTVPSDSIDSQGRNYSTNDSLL
3',5'-cyclic-AMP phosphodiesterase 4B, sequence (Q07343 whole entry): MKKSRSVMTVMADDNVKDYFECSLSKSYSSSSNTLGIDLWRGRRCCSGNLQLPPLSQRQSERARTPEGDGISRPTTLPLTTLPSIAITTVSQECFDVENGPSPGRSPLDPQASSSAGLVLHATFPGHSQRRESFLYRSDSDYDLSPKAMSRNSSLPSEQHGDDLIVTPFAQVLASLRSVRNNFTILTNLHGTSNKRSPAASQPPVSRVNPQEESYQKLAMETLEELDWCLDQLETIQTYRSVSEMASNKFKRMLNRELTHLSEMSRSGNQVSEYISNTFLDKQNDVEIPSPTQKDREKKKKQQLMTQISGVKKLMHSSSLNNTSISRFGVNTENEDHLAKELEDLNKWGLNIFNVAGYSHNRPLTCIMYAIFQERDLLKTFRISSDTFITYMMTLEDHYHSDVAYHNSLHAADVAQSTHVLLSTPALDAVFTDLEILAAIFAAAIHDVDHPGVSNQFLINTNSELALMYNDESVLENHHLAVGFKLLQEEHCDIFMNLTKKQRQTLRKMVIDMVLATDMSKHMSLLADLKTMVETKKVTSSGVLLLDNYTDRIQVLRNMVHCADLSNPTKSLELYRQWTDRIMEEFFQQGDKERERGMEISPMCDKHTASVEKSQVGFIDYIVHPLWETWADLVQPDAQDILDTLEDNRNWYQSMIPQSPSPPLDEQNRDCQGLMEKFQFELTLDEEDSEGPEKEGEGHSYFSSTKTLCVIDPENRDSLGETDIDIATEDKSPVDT
Beta-2 adrenergic receptor (Cavia porcellus), sequence (Q8K4Z4 whole entry, looked up): as the sequence (Q8K4Z4 whole entry) above

As to `COc1ccc(C2=NN(CCCCNCC(O)c3ccc(O)c(NC=O)c3)C(=O)C3CCCCC23)cc1OC` (racemic), the IC50 in test [1] was 278 nM. The EC50 in test [2] is 0.501 nM.

`COc1ccc([C@]2(C#N)CC[C@@H](C(=O)O)CC2)cc1OC1CCCC1` [CILOMILAST] displayed an IC50 in test [3] of 95 nM.

For the compound `COc1ccc(C2=NNC(=O)C3CCCCC23)cc1OC` (stereo not drawn), the IC50 in test [1] is 520 nM.

For `O=c1[nH]ncc2ccccc12` [PHTHALAZINONE], in test [1], the IC50 was found to be 520 nM.

Take `COc1ccc(C2=NN(CCCCNC[C@H](O)c3ccc(O)c(NC=O)c3)C(=O)C3CCCCC23)cc1OC` (stereo partly drawn): the Kb in test [4] was 0.708 nM. The outcome in test [5] was inactive. For the same compound, the IC50 in test [1] is 265 nM. The EC50 in test [2] was 0.1 nM.

As to `COc1ccc(C2=NN(CCCCCNCC(O)c3ccc(O)c(NC=O)c3)C(=O)C3CCCCC23)cc1OC` (stereo not drawn), the IC50 in test [1] worked out at 257 nM. In addition, the EC50 in test [2] is 20 nM.

Regarding `COc1ccc(C2=NN(CCCCCCNCC(O)c3ccc(O)c(NC=O)c3)C(=O)C3CCCCC23)cc1OC` (stereo not drawn), the IC50 in test [1] amounted to 251 nM. Also, in test [2], the EC50 was 50.1 nM.

As to `COc1ccc(C2=NN(CCCCNC[C@@H](O)c3ccc(O)c(NC=O)c3)C(=O)C3CCCCC23)cc1OC` (stereo partly drawn), the IC50 in test [1] worked out at 284 nM. In test [2], the EC50 is 126 nM.

Take `COc1ccc(C2=NN(CCNCC(O)c3ccc(O)c(NC=O)c3)C(=O)C3CCCCC23)cc1OC` (stereo not drawn): the IC50 in test [1] is 280 nM. Besides, in test [2], the EC50 was 20 nM.

With `CC(C)NCC(O)c1ccc(O)c(O)c1` (stereo not drawn) [ISOPROTERENOL], the EC50 in test [2] was 31.6 nM.
